Columns and labels:
RprY [1] = biological target: T1, RprY (Porphyromonas gingivalis, UniProt B2RK10); experiment: EMSA with nqrA promoter DNA and in vitro ChIP after treatment with AcP; type: biochemical; details: phosphoryl donor; covalent; protein as purified already partly phosphorylated; acetylation by AcP not ruled out
T1 construct: N-terminal His6-RprY (pETRprY), recombinant from E. coli BL21(DE3), 28 kDa ORF; already phosphorylated as purified

RprY [2] = biological target: T1, RprY; experiment: autoacetylation, anti-acetyl-lysine Western blot; type: biochemical; details: 10 mM Tris-HCl pH 8.0, 37 °C, no added enzyme; covalent (lysine acetylation); acetyl donor

T1 sequence (B2RK10 entry or part of it): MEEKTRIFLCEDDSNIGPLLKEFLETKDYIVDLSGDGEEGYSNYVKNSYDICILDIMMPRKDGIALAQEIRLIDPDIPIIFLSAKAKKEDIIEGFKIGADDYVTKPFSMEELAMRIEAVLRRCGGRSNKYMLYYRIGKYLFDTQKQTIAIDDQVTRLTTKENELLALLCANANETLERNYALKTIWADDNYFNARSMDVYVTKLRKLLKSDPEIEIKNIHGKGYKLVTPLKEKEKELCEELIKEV

## CC(=O)OP(=O)(O)O [acetyl phosphate]
RprY [1]
  EMSA with nqrA promoter DNA and in vitro ChIP after treatment with AcP: increasing concentrations of AcP resulted in increased incorporation of the labelled promoter into RprY-DNA complexes

## CC(=O)SCCNC(=O)CCNC(=O)[C@H](O)C(C)(C)COP(=O)(O)OP(=O)(O)OC[C@H]1O[C@@H](n2cnc3c(N)ncnc32)[C@H](O)[C@@H]1OP(=O)(O)O [acetyl-CoA]
RprY [2]
  autoacetylation, anti-acetyl-lysine Western blot: RprY was dependent on both the concentration of Ac-CoA and the length of incubation

Source: article PMC6032018, “Post-translational regulation of a Porphyromonas gingivalis regulator” (Journal of Oral Microbiology, 2018)
